Laboratory results: ChEMBL document CHEMBL4152259, “Benzoxazinone-containing 3,5-dimethylisoxazole derivatives as BET bromodomain inhibitors for treatment of castration-resistant prostate cancer” (Eur J Med Chem, 2018)

Key:
[1] = target: T1, Bromodomain-containing protein 4 (Homo sapiens, UniProt O60885); test: Inhibition of His6-tagged human BRD4 bromodomain-1 (N44 to E168 residues) expressed in Escherichia coli BL21(DE3) using biotinylated-H4KAc4 as substrate by AlphaScreen assay
[2] = target: T1, Bromodomain-containing protein 4
Description: Binding affinity to His6-tagged human BRD4 bromodomain-1 (N44 to E168 residues) expressed in Escherichia coli BL21(DE3) assessed as change in melting temperature at 200 uM by SYPRO orange dye based fluorescence assay

LNCaP [3] = test: Antiproliferative activity against human LNCAP cells treated at 12 hrs post cell seeding measured at 72 to 144 hrs post cell seeding by Cell-Titer Glo assay; assay type: functional, cell-based
LNCaP C4-2B = test: Antiproliferative activity against human C4-2B cells treated at 12 hrs post cell seeding measured at 72 to 144 hrs post cell seeding by Cell-Titer Glo assay; assay type: functional, cell-based
CWR22R = test: Antiproliferative activity against human 22Rv1 cells treated at 12 hrs post cell seeding measured at 72 to 144 hrs post cell seeding by Cell-Titer Glo assay; assay type: functional, cell-based
VCaP = test: Antiproliferative activity against human VCaP cells treated at 12 hrs post cell seeding measured at 72 to 144 hrs post cell seeding by Cell-Titer Glo assay; assay type: functional, cell-based
LNCaP [4] = test: Antiproliferative activity against human LNCAP cells; assay type: functional, cell-based

IC50 [1]	ΔTm [2]	Compound	further results
1.33 µM	6.3 °C	Cc1noc(C)c1-c1ccc2c(c1)OC(c1cc(Cl)cc(Cl)c1)C(=O)N2 (stereo not given)	
0.2 µM	7.8 °C	CCCCC1Oc2cc(-c3c(C)noc3C)ccc2NC1=O (stereo not given)	IC50 (LNCaP [3]): 0.82 µM; IC50 (LNCaP C4-2B): 0.59 µM; IC50 (CWR22R): 4.52 µM; IC50 (VCaP): 1.14 µM
0.88 µM	5.4 °C	Cc1noc(C)c1-c1ccc2c(c1)OC(c1ccc(Cl)cc1)C(=O)N2 (stereo not given)	
0.29 µM	7.8 °C	Cc1noc(C)c1-c1ccc2c(c1)OC(CC1CCCC1)C(=O)N2 (stereo not given)	
1.17 µM	6.9 °C	Cc1noc(C)c1-c1ccc2c(c1)OC(CC1CCCCC1)C(=O)N2 (stereo not given)	
0.53 µM	6.9 °C	CSCCC1Oc2cc(-c3c(C)noc3C)ccc2NC1=O (stereo not given)	
> 20 µM	2.1 °C	Cc1noc(C)c1-c1ccc2c(c1)OC(Cc1ccc(Cl)cc1)C(=O)N2 (stereo not given)	
		Cc1sc2c(c1C)C(c1ccc(Cl)cc1)=N[C@@H](CC(=O)Nc1ccc(O)cc1)c1nnc(C)n1-2 [BIRABRESIB]	IC50 (LNCaP [4]): 0.111 µM
> 20 µM	3 °C	Cc1noc(C)c1-c1ccc2c(c1)OC(Cc1ccccc1)C(=O)N2 (stereo not given)	
3.64 µM	6.9 °C	Cc1noc(C)c1-c1ccc2c(c1)O[C@H](CC1CC1)C(=O)N2CC(=O)N(C)C	
2.27 µM	3.3 °C	Cc1noc(C)c1-c1ccc2c(c1)OC(c1cccc(C(F)(F)F)c1)C(=O)N2 (stereo not given)	
0.86 µM	8.4 °C	Cc1noc(C)c1-c1ccc2c(c1)O[C@H](CC1CC1)C(=O)N2CCN(C)C	
1.14 µM	5.4 °C	Cc1noc(C)c1-c1ccc2c(c1)OC(c1ccccc1C(F)(F)F)C(=O)N2 (stereo not given)	
1.17 µM	6.9 °C	Cc1noc(C)c1-c1ccc2c(c1)OC(C(C)C)C(=O)N2 (stereo not given)	
0.51 µM	4.8 °C	Cc1noc(C)c1-c1ccc2c(c1)OC(c1cccc(Cl)c1)C(=O)N2 (stereo not given)	
0.2 µM	8.1 °C	Cc1noc(C)c1-c1ccc2c(c1)OC(CC1CCC1)C(=O)N2 (stereo not given)	
0.52 µM	7.7 °C	Cc1noc(C)c1-c1ccc2c(c1)O[C@H](CC1CC1)C(=O)N2C	
0.4 µM	8.7 °C	Cc1noc(C)c1-c1ccc2c(c1)OC(CC1CC1)C(=O)N2 (stereo not given)	IC50 (LNCaP [3]): 1.03 µM; IC50 (LNCaP C4-2B): 0.59 µM; IC50 (CWR22R): 1.94 µM; IC50 (VCaP): 0.41 µM
0.62 µM	7.5 °C	Cc1noc(C)c1-c1ccc2c(c1)OC(c1cccc(F)c1)C(=O)N2 (stereo not given)	
2.12 µM	6.9 °C	Cc1noc(C)c1-c1ccc2c(c1)O[C@H](CC1CC1)C(=O)N2CC(=O)O	
0.36 µM	8.9 °C	COC(=O)CN1C(=O)[C@@H](CC2CC2)Oc2cc(-c3c(C)noc3C)ccc21	
3.54 µM	3.9 °C	Cc1noc(C)c1-c1ccc2c(c1)O[C@@H](CC1CC1)C(=O)N2	
		CCNC(=O)C[C@@H]1N=C(c2ccc(Cl)cc2)c2cc(OC)ccc2-n2c(C)nnc21 [MOLIBRESIB]	IC50 (LNCaP [4]): 0.356 µM
		CNC(=O)c1ccc(N2C(=S)N(c3ccc(C#N)c(C(F)(F)F)c3)C(=O)C2(C)C)cc1F [ENZALUTAMIDE]	IC50 (LNCaP C4-2B): 20.8 µM; IC50 (VCaP): > 30 µM
0.29 µM	8.1 °C	CCCC1Oc2cc(-c3c(C)noc3C)ccc2NC1=O (stereo not given)	
4.25 µM	5.7 °C	Cc1noc(C)c1-c1ccc2c(c1)OC(c1ccc(Cl)c(Cl)c1)C(=O)N2 (stereo not given)	
6.07 µM	3.2 °C	Cc1noc(C)c1-c1ccc2c(c1)O[C@H](Cc1ccccc1)C(=O)N2	
0.18 µM	9.4 °C	Cc1noc(C)c1-c1ccc2c(c1)OC(CC(C)C)C(=O)N2 (stereo not given)	IC50 (LNCaP [3]): 0.57 µM; IC50 (LNCaP C4-2B): 0.54 µM; IC50 (CWR22R): 6.5 µM; IC50 (VCaP): 0.38 µM
0.49 µM	5.1 °C	Cc1noc(C)c1-c1ccc2c(c1)OC(c1ccccc1Cl)C(=O)N2 (stereo not given)	
0.27 µM	7.9 °C	Cc1noc(C)c1-c1ccc2c(c1)OC(C(C)(C)C)C(=O)N2 (stereo not given)	
